Here are results for one molecule from patent publication US20090210952A1, “Compositions and Methods Related to Controlled Gene Expression Using Viral Vectors” (priority 2005, published 2009).

One test concerns GFP expression. The experiment in a line: DOX concentration required to induce GFP expression in infected cells (fluorescent microscopy). The conditions noted are these: within 48 hours; cells infected with viral particles from pHReGFPO2/EFtet/blas. Format: cell-based. How it is done: To determine the DOX concentration required to induce gene expression in the single vector system, different concentration of DOX were added to cells infected with viral particles derived from pHReGFPO2/EFtet/blas (titer 2.5×10^6/ml). GFP expression was monitored by fluorescent microscopy.

Test [1] has as its system transgenic mice containing a tet regulatable system. The conditions noted are these: previous study; cited from earlier work.
In the next test the test system is transgenic mice. The test is described as follows: Induction of eGFP expression in transgenic mice by drinking water containing DOX. The format is in vivo, mouse. The procedure:
To determine whether the inducible constructs could induce eGFP expression in vivo, the transgenic mice were fed drinking water containing 100 μg/ml DOX. GFP expression in the body (paw) and PBMCs was analyzed by fluorescent microscopy and FACS analysis before and after the transgenic mice were fed DOX.
A previous study reported that a DOX concentration of 0.1-10 mg/ml in the drinking water of transgenic mice containing a tet regulatable system, was required for inducible gene expression within the animal. To determine the concentration of DOX required for inducible expression of GFP in the transgenic mice described above, the F1 mice from CAG-founder 6# were divided into the four groups which were fed drinking water containing different concentrations of DOX including 0 ug/ml (Group 1), 4 ug/ml (Group 2), 20 ug/ml (Group 3), and 100 ug/ml (Group 4). GFP expression was monitored by visualizing GFP expression in the fingers of the transgenic mouse under UV light after 0, 1, 2, 3, 5 and 18 days of feeding the mice DOX. The intensity of the fluorescent signal in the fingers of the tested mice over the course of the experiment was observed. […] The intensity of the fluorescent signal for Groups 3 and 4 expressed their highest level of GFP expression after 5 days of DOX feeding. In addition, 4 ug/ml of DOX fed to the mice of Group 2 mice was sufficient to induce GFP expression, however the induction was delayed and the intensity was relatively weak as compared to Group 3 and 4 mice. Also of note is that the intensity of a fluorescent signal appeared in a does-dependent manner.
Using the FACS, positive blood cells expressing GFP were isolated and quantified. […] For all mice of Groups 2, 3 and 4, both the number and intensity of GFP expressing cells increased after the mice were fed DOX.
To determine the pharmacokinetics of DOX, 43% of the blood cells expressed GFP from Group 4 mice (after 18 days of DOX feeding), this level was used to set the threshold of 100 percent induction.

SMILES strings stand for the structures.

On to `C[C@H]1c2cccc(O)c2C(O)=C2C(=O)[C@]3(O)C(O)=C(C(N)=O)C(=O)[C@@H](N(C)C)[C@@H]3[C@@H](O)[C@@H]21` [DOX, doxycycline], for which, in the test with GFP expression, the “DOX sufficient to induce GFP expression” value was determined as 15 ng. Also, the “DOX concentration in the drinking water required for inducible gene expression” value in test [1] is 0.1 to 10 mg/mL. For the same molecule, the “time of DOX feeding until mice began to express GFP” value in the test on transgenic mice (20 ug/ml and 100 ug/ml DOX (Group 3 and Group 4)) stood at 1 days. For the same molecule, the “time of DOX feeding to highest level of GFP expression” value with transgenic mice (20 ug/ml and 100 ug/ml DOX (Groups 3 and 4)) was found to be 5 days. Also, the “DOX concentration in drinking water sufficient to induce GFP expression” value in the test on transgenic mice (F1 mice from CAG-founder 6#, fingers under UV light, induction delayed, intensity relatively weak) is 4 µg/mL. Moreover, the “blood cells expressing GFP” value in the test with transgenic mice (Group 4 (100 ug/ml DOX), after 18 days of DOX feeding, FACS) is given as 43%.
